Reference: ChEMBL document CHEMBL1201862, “PubChem BioAssay data set” (2004)
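Interpolation was linear, between the two tested concentrations surrounding the appropriate level; five concentrations were tested over 48 hours in 96-well plates. Abbreviation: GI50, concentration required for 50% inhibition of growth.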 The source made the active and inactive calls. Cut-off read from the data, not from the text of the source: active = GI50 up to about 1.1 µM and inactive = higher.

What was measured:
Test in all cases: NCI anticancer screen, dose series, 48 h
[1] = tested on: OVCAR-8
[2] = tested on: ACHN
[3] = tested on: Hs-578T
[4] = tested on: SK-MEL-5
[5] = tested on: IGROV-1
[6] = tested on: MDA-MB-231
[7] = tested on: RXF 393
[8] = tested on: OVCAR-3
[9] = tested on: MDA-MB-435
[10] = tested on: SF-268
[11] = tested on: HCC 2998
[12] = tested on: NCI-H23
[13] = tested on: DU-145
[14] = tested on: U-251
[15] = tested on: SK-OV-3
[16] = tested on: HOP-92
[17] = tested on: MOLT-4
[18] = tested on: T47D
[19] = tested on: KM12
[20] = tested on: UACC-257

| SMILES | GI50 [1] | GI50 [2] | GI50 [3] | GI50 [4] | GI50 [5] | GI50 [6] | GI50 [7] | GI50 [8] | GI50 [9] | GI50 [10] | GI50 [11] | GI50 [12] | GI50 [13] | GI50 [14] | GI50 [15] | GI50 [16] | GI50 [17] | GI50 [18] | GI50 [19] | GI50 [20] |
| --- | --- | --- | --- | --- | --- | --- | --- | --- | --- | --- | --- | --- | --- | --- | --- | --- | --- | --- | --- | --- |
| CC(C)(C)c1cc2c(OC/C=C/c3ccccc3)c(c1)Cc1cc(C(C#N)(OC/C=C/c3ccccc3)OC/C=C/c3ccccc3)cc(c1OC/C=C\c1ccccc1)Cc1cc(C(C)(C)C)cc(c1OC/C=C/c1ccccc1)Cc1cc(C(C#N)(OC/C=C\c3ccccc3)OC/C=C/c3ccccc3)cc(c1OC/C=C\c1ccccc1)C2 (stereo not given) | > 100 µM (inactive) | > 100 µM (inactive) | > 100 µM (inactive) | > 100 µM (inactive) | > 100 µM (inactive) | 30.4 µM (inactive) | > 100 µM (inactive) | > 100 µM (inactive) | > 100 µM (inactive) | > 100 µM (inactive) | > 100 µM (inactive) | > 100 µM (inactive) | > 100 µM (inactive) | > 100 µM (inactive) | > 100 µM (inactive) | 95.5 µM (inactive) | > 100 µM (inactive) | > 100 µM (inactive) | > 100 µM (inactive) | > 100 µM (inactive) |
| CCCCCCCCCCCCCC(=O)OC(/C=C/C(C)C)C(O)C(O)C(OC)C(=O)NC1CCCCNC1=O (stereo not given) | 1.02 µM (active) | 0.689 µM (active) | 9.79 µM (inactive) | 1.9 µM (inactive) | 0.527 µM (active) | 2.58 µM (inactive) | 0.789 µM (active) | 1.81 µM (inactive) | 5.97 µM (inactive) | 1.52 µM (inactive) | 0.574 µM (active) | 1.2 µM (inactive) | > 10 µM (inactive) | 0.673 µM (active) | 2.54 µM (inactive) | 1.17 µM (inactive) | 0.57 µM (active) | > 10 µM (inactive) | 0.448 µM (active) | 2.84 µM (inactive) |
| COC(=O)Cc1ccc(Oc2nc3ccccc3nc2-c2cccs2)cc1 | 36.4 µM (inactive) | > 100 µM (inactive) | 39.8 µM (inactive) | > 100 µM (inactive) | > 100 µM (inactive) | 27.2 µM (inactive) | 19.1 µM (inactive) | > 100 µM (inactive) | > 100 µM (inactive) | 36 µM (inactive) | > 100 µM (inactive) | > 100 µM (inactive) | > 100 µM (inactive) | 39.1 µM (inactive) | 24.8 µM (inactive) | 24.2 µM (inactive) | > 100 µM (inactive) | > 100 µM (inactive) | > 100 µM (inactive) | > 100 µM (inactive) |
